{
  "source": "patent US6407029B1",
  "about": "“Mixtures comprising tetrakis(pyrrolidino/piperdino)phosphonium salts” (priority 1999, dated 2002)",
  "data": [
    {"assay": "dermal toxicity", "format": "in vivo", "settings": "species and method not stated", "units": {"dermal toxicity": "mg/kg body weight"}, "values": [
      {"smiles": "C1CCN([P+](N2CCCC2)(N2CCCC2)N2CCCC2)C1.[Cl-]", "note": "[tetrakis(pyrrolidino)phosphonium chloride]", "dermal toxicity": "~390"},
      {"smiles": "CCN(CC)[P+](N(CC)CC)(N(CC)CC)N(CC)CC.[Br-]", "note": "[tetrakis(diethylamino)phosphonium bromide, reference compound]", "dermal toxicity": "< 50"},
      {"smiles": "C1CCN([P+](N2CCCCC2)(N2CCCCC2)N2CCCCC2)CC1.[Cl-]", "note": "[tetrakis(piperidino)phosphonium chloride]", "dermal toxicity": "~200"}
    ]}
  ]
}
